The text below walks through data of patent publication US9981972B2, “N-hydroxy bicyclic hydantoin carbamates as tools for identification of serine hydrolase targets” (ABIDE THERAPEUTICS, INC., priority 2014, dated 2018).

Assay [1] has as its system serine hydrolases in PC3 cells. The experiment in a line: ABPP-SILAC, PC3 cells treated in situ, other SH targets. It is filed as cell-based, human. As to conditions: 4 h in situ. Here is the method: (§1) In situ inhibitor treatments of human cell lines were performed as described previously (Hsu et al., J Med Chem 56, 8270-8279, 2012). Briefly, PC3 or transfected HEK293T cells were grown to confluency in serum-containing media (RPMI or DMEM, respectively). The culture media was then removed and replaced with fresh media containing DMSO or inhibitor at the desired concentration and incubated for 4 hours in a tissue culture incubator (37° C., 5% CO2). Cells were then washed with PBS, harvested, washed with PBS once more, and lysed with a probe sonicator.
The activity and selectivity of dual ABHD3/4 and ABHD4-preferring inhibitors in PC3 cells by ABPP-SILAC was assessed. Isotopically heavy and light PC3 cells were treated in situ with inhibitor (Compound 37 (1 μM) or Compound 38 (0.5 μM)) or DMSO for 4 h and then lysed and processed for ABPP-SILAC analysis.
Isotopically heavy- and light-labeled PC3 cells were treated with Compound 37 (1 μM) or DMSO for 4 h, respectively, lysed, and then treated Compound 39 (5 μM, 1 h). […] Among the handful of additional SH targets of Compound 37 were ABHD6 and PLA2G7, which were expected based on our ABPP-SILAC studies with FP-biotin (see FIG. 9), and protein-palmitoyl thioesterase 1 (PPT1), which was inhibited by more than 90%. […] Accordingly, PPT1 was not detected in our previous ABPP-SILAC studies with FP-biotin (see FIG. 9). The selective enrichment of PPT1 by Compound 39 was confirmed by performing a probe-versus-probe ABPP-SILAC study, where heavy and light PC3 proteomes were treated with FP-biotin (2.5 μM, 1 h) and Compound 39 (5 μM, 1 h), respectively. PPT1, along with two additional SHs LIPA and DDHD2, were preferentially enriched by Compound 39 over FP-biotin, while most of the other SHs were more strongly enriched by FP-biotin (see FIG. 13). A handful of SHs corresponding mostly to enzymes that were identified in our ABPP-SILAC studies as targets of Compound 37 (see FIGS. 9 and 12), were equivalently enriched by Compound 39 and FP-biotin (see FIG. 13).
To evaluate the broader selectivity of Compound 26 and Compound 34 across the SH class, heavy and light isotopically-labeled PC3 cells were treated with inhibitor [Compound 34 (1 μM); or Compound 26 (1 or 0.1 μM); 4 h) and DMSO, respectively, followed by ABPP-SILAC analysis with either the FP-biotin probe or the Compound 39 probe. […] Conversely, Compound 34 inhibited >90% of ABHD4 activity, as measured with either the FP-biotin probe or the Compound 39 probe, and cross-reacted with four additional targets—ABHD6, PAFAH2, PLA2G7, and PLA2G15.

A further assay has as its target T1, human LYPLA1 (Homo sapiens, UniProt O75608).
T1 construct: endogenous human LYPLA1/2 in a HeLa soluble proteome; endogenous in cells; host or cells: HeLa (soluble proteome in vitro; cultured cells in situ)
The experiment in a line: IC50 by gel-based competitive ABPP in vitro, soluble HeLa cell proteome. It is filed as biochemical.

The next assay deals with T2, human LYPLA2 (Homo sapiens, UniProt O95372).
T2 construct: endogenous human LYPLA1/2 in a HeLa soluble proteome; endogenous in cells; host or cells: HeLa (soluble proteome in vitro; cultured cells in situ)
T2 sequence (O95372 whole entry): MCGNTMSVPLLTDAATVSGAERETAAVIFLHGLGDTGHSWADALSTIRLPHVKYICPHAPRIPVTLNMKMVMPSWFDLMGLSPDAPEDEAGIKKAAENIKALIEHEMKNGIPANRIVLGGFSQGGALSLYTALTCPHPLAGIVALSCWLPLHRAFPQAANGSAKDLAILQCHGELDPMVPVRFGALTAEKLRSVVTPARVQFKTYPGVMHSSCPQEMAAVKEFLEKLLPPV
The assay is described as above. The class given is biochemical.

The target of the next assay is T3, endogenous PPT1 (Homo sapiens, UniProt P50897).
T3 construct: endogenous in cells; host or cells: PC3
T3 sequence (P50897 28-306): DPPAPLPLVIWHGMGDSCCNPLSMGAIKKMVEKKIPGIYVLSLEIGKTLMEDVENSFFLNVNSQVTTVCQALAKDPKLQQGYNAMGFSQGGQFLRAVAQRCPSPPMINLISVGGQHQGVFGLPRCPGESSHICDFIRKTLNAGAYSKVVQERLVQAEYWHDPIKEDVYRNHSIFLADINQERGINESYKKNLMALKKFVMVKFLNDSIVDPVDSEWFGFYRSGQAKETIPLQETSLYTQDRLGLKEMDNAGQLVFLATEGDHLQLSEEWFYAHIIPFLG
The experiment in a line: PPT1 substrate assay, PC3 cells treated in situ. It is filed as cell-based. Particulars: 4 h in situ; for reduction in 4-MUBO hydrolysis activity versus DMSO: 500 nM inhibitor. The procedure:
PPT1 activity was assessed in vitro using a substrate assay adapted from previous studies (van Diggelen et al., Molecular genetics and metabolism 66, 240-244, 1999). Lysates from HEK293T cells transfected with an empty vector, or human PPT1 under a CMV promoter were adjusted to 1 mg/ml in PBS (25 μl), and then combined 1:1 with Mcllvain's phosphate/citrate buffer containing 0.375% (v/v) Triton-X 100 and 15 mM DTT (pH 5.0). This sample was pre-treated with inhibitor or DMSO for 30 minutes at 37° C., and 10 μl (5 μg protein) was used in the substrate assay as follows: Samples were diluted in a black 96-well plate (half-area) with 20 μl McIlvain's phosphate/citrate buffer (pH 5.0) containing 0.375% TX-100 and 15 mM DTT, as well as 0.64 mM MU-6S-Palm-PD-Glc and 0.1 U sweet almond glucosidase (Sigma). The reactions were incubated at 37° C. for 1 hour, quenched with 120 μl sodium bicarbonate buffer (pH 10.0), and hydrolysis by 4-MU fluorescence measured by excitement at […] and emission intensity at […]. 16 μg protein was used for analysis of native PC3 cells.
as §1
Compound 26 was then tested to see if it inhibited PPT1 activity using a substrate assay. […] In this assay, PPT1 hydrolyzes the substrate's palmitoyl thioester bond, and exogenous sweet almond β-glucosidase deglycosylates and frees the fluorophore, 4-methylumbelliferone (4-MU), which is measured to assess PPT1 activity.

Where [2] appears, read: first value of the cell, read-out: hLYPLA1/2 in vitro potency (IC50): hLYPLA1.
Where [3] appears, read: second value of the cell, read-out: hLYPLA1/2 in vitro potency (IC50): hLYPLA2.

Entries after “also recorded” stand apart in the source; their conditions may differ. Read-outs that look alike come from different tables or passages of the source.

T1 sequence (O75608 whole entry): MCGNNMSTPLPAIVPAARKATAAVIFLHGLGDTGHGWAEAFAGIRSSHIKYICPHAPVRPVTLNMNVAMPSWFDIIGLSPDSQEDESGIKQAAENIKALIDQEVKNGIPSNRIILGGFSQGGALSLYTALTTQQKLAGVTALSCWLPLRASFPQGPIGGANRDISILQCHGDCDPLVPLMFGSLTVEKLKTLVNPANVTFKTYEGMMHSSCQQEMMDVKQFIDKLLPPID

With `COc1ccc(N2CCN(C(=O)ON3C(=O)C4CN(Cc5ccc(Oc6ccccc6)cc5)CCN4C3=O)CC2)cc1` (stereo not shown) [Compound 37, 1,3-dioxo-7-(4-phenoxybenzyl)hexahydroimidazo[1,5-a]pyrazin-2(3H)-yl 4-(4-methoxyphenyl)piperazine-1-carboxylate], the “SHs inhibited in PC3 cells” value in assay [1] (1 μM, Compound 39 probe) is on record as “ABHD4; also recorded: ABHD6; also recorded: PLA2G7”.
In the case of `C#Cc1ccc(CCC2CCN(C(=O)ON3C(=O)[C@@H]4CN(C(=O)N5CCOCC5)CCN4C3=O)CC2)cc1` [Compound 48, (S)-7-(morpholine-4-carbonyl)-1,3-dioxo-hexahydroimidazo[1,5-a]pyrazin-2(3H)-yl 4-(4-ethynylphenethyl)piperidine-1-carboxylate], the results for the IC50 at human LYPLA1 (setting [2]) and at human LYPLA2 (setting [3]) were 1.75 µM and 1.83 µM, respectively.
As for `O=C(ON1C(=O)C2CN(Cc3ccc(Oc4ccccc4)cc3)CCN2C1=O)N1CCC(c2ccccc2)CC1` (stereo not shown) [Compound 38, 1,3-dioxo-7-(4-phenoxybenzyl)hexahydroimidazo[1,5-a]pyrazin-2(3H)-yl 4-phenylpiperidine-1-carboxylate], the “additional targets among 44 serine hydrolases” value in assay [1] (0.5 μM, PC3, FP-biotin) was “LIPE and PLA2G7 and ABHD6 and CES2”.
As to `COc1ccc(N2CCN(C(=O)ON3C(=O)C4CN(CC5CCN(Cc6ccccc6)CC5)CCN4C3=O)CC2)cc1` (stereo not shown) [Compound 26, 7-((1-benzylpiperidin-4-yl)methyl)-1,3-dioxohexahydroimidazo[1,5-a]pyrazin-2(3H)-yl 4-(4-methoxyphenyl)piperazine-1-carboxylate], in assay [1] (1 or 0.1 μM, PC3), the “cross-reacting SHs of >40 quantified” value was “ABHD6 and CPVL”. The “reduction in 4-MUBO hydrolysis activity versus DMSO” value at endogenous PPT1 is listed as “substantial reductions”. Further, the “reduction in endogenous PPT1 activity” value at endogenous PPT1 (500 nM, MU-6S-Palm-βD-Glc substrate assay) came out at 90%.
Regarding `C#Cc1ccc(CCC2CCN(C(=O)ON3C(=O)[C@H]4CN(C(=O)N5CCOCC5)CCN4C3=O)CC2)cc1` [Compound 49, (R)-7-(morpholine-4-carbonyl)-1,3-dioxo-hexahydroimidazo[1,5-a]pyrazin-2(3H)-yl 4-(4-ethynylphenethyl)piperidine-1-carboxylate], the IC50 came to 0.842 µM on human LYPLA1 (setting [2]) and 1.43 µM at human LYPLA2 (setting [3]).
For `O=C(ON1C(=O)C2CN(C(=O)N3CCOCC3)CCN2C1=O)N1CCC(CCc2ccc(Cl)cc2)CC1` (stereo not shown) [Compound 1, 7-(morpholine-4-carbonyl)-1,3-dioxohexahydroimidazo[1,5-a]pyrazin-2(3H)-yl 4-(4-chloro-phenethyl)piperidine-1-carboxylate], the IC50 at human LYPLA1 (HeLa cell lysates, FP-Rh, read-out: human LYPLA1 IC50 in vitro) was determined as 0.122 µM; on human LYPLA2 (HeLa cell lysates, FP-Rh, read-out: human LYPLA2 IC50 in vitro), 0.245 µM.
Take `O=C(ON1C(=O)C2CN(Cc3ccc(Oc4ccccc4)cc3)CCN2C1=O)N1CCOCC1` (stereo not shown) [Compound 34, 1,3-dioxo-7-(4-phenoxybenzyl)hexahydroimidazo[1,5-a]pyrazin-2(3H)-yl morpholine-4-carboxylate]: the additional cross-reacting targets entry in assay [1] (1 μM, PC3) was “ABHD6; also recorded: PAFAH2; also recorded: PLA2G7; also recorded: PLA2G15”. On endogenous PPT1, the “reduction in 4-MUBO hydrolysis activity versus DMSO” value is given as “not”.
